The values below come from patent US5744452A, “γ-L-glutamyl containing immunomodulator compounds and methods therewith” (Wei; Edward T., priority 1995, dated 1998).

Where a SMILES comes first, the peptide text is derived from it. Where no end group is shown, it is not given here.

The test system of one series is murine bone marrow cells. In words: .THETA.-antigen expression on murine bone marrow cells (T-lymphocyte precursor differentiation). Format: cell-based, CBA strain mice. Details: .THETA.-antigen expression on murine bone marrow cells: unit not given here. Particulars: for immunostimulatory activity in the in vitro assays used: .THETA.-antigen expression and IL-2 production assays, compared with Bestim; for Percent of murine bone marrow cells expressing .THETA.-antigen: Table 5; for .THETA.-antigen expression on murine bone marrow cells: Table 1. The procedure: Differentiation of murine T-lymphocyte precursors was studied by the enumeration of cells expressing early surface differentiation marker .THETA.-antigen. Bone marrow cells were obtained from CBA strain mice killed by cervical dislocation. Cells were washed from femur bones with Hank's balanced salt solution and washed 3 times with RPM 1-1640 medium by centrifugation at 400 xg. Peptides at desired concentrations were incubated with 1×10^6 /ml of obtained cells for 1 hour at 37° C. Theta-antigen (".THETA.-antigen") expression has been determined with antibrain antibodies in a cytotoxicity assay using complement-dependent cell lysis (Terasaki et al., "Microdroplet Lymphocyte Cytotoxicity Test. Manual of Tissue Typing Techniques," National Institutes of Health, Bethesda, Md., pp 50-55, 1972). Dead cells were counted microscopically after eosin staining. […] Its activity was much stronger than that of the reference thymogen peptide.
Differentiation of murine T-lymphocyte precursors was studied by the enumeration of cells expressing early surface differentiation marker--.THETA.-antigen which is an analog of the Thy-1 lymphocyte differentiation antigen. Bone marrow cells were obtained from CBA strain mice killed by cervical dislocation. Cells were washed from femur bones with Hank's balanced salt solution and washed 3 times with RPMI-1640 medium by centrifugation at 400 xg. Peptides at desired concentrations were incubated with 1×10^6 /ml of obtained cells for 1 hour at 37° C. .THETA.-antigen expression were determined with antibrain antibodies in a cytotoxicity assay using complement-dependent cell lysis (Terasaki et al., 1972). Dead cells were counted microscopically after eosin staining untreated bone marrow cells served as a negative control, and murine thymocytes as a positive control.

The next series has as its system murine spleen cells. In words: IL-2 production by Concanavalin A activated murine spleen cells (CTLL-2 cell assay). The class given is cell-based, CBA mice. Particulars: for interleukin-2 production by murine spleen cells: Table 6; for IL-2 production by murine spleen cells: Table 2. The protocol:
Spleen cells from CBA mice were cultured in tissue culture plates at a 10^6 cells/ml in RPMI-1640 medium supplemented with 10% fetal calf serum, 2 mM L-glutamine, and 80 μg/ml of Gentamycin. 1 μg/ml of Concanavalin A was used to activate basal IL-2 production from murine spleen lymphocytes. Bestim was added to cell cultures at the "0" time. After 36 hours supernatants were collected, centrifuged at 800 xg and IL-2 levels were measured in a CTLL-2 cell assay (Gillis et al., "T-cell Growth Factor: Parameters of Production and Quantitative Assay for Activity," J. Immunol., 120: 2027-2032, 1978). […] However, due to the variations in the method for IL-2 measurements clear dose-response comparisons could not be achieved.
IL-2 production studies have been performed using murine spleen lymphocytes activated with Concanavalin A. Spleen cells from CBA mice were cultured in a tissue culture plates at a 1×10^6 /ml concentration in RPMI-1640 medium supplemented with 10% fetal calf serum, 2 mM L-glutamine,80 μg/ml Gentamycin and 1 μg/ml Concanavalin A as an inducer of basal level IL-2 synthesis. Bestim at various concentration was added to cell cultures at the "0" time. After 36 hours supernatants were collected, centrifuged at 800 xg and used for IL-2 levels determination in a CTLL-2 cell assay (Gillis et al., 1978). IL-2-dependent CTLL-2 cells were grown in RPMI-1640 medium in the presence of 1-2 U/ml recombinant IL-2 as a growth factor. Before assay, cells were washed twice to remove IL-2 from the medium. After this wash tested supernatants were added and cells were incubated for 36 hours. IL-2-induced proliferation was assayed using a ^3 H-thymidine incorporation method.

For series [1] the following is noted: cited from earlier work.

On to `CN[C@@H](CCC(=O)N[C@@H](Cc1c[nH]c2ccccc12)C(=O)O)C(=O)O` [B, N-methyl-γ-L-glutamyl-L-tryptophan], for which the “immunostimulatory activity in the in vitro assays used” value (shortened to “immunostimulatory activity”) in the series with murine bone marrow cells is given as “active compounds were obtained”. For the same compound, the “Percent of murine bone marrow cells expressing .THETA.-antigen” value (shortened to “Percent”) in the series on murine bone marrow cells (peptide 0.0001 μg/ml) is on record as 20%; in the series with murine bone marrow cells (peptide 0.001 μg/ml) it was 29%; in the series with murine bone marrow cells (peptide 0.01 μg/ml) it was 34%; with murine bone marrow cells (peptide 0.1 μg/ml), 40%; with murine bone marrow cells (peptide 1.0 μg/ml), 47%; with murine bone marrow cells (peptide 10 μg/ml), 51%. For the same compound, the “Percent” value with murine bone marrow cells (peptide 100 μg/ml) worked out at 53%. For the same compound, the “interleukin-2 production by murine spleen cells” value (shortened to “interleukin-2 production”) with murine spleen cells (peptide 0.001 μg/ml) is 134 ± 6; in the series with murine spleen cells (peptide 0.01 μg/ml) it was 147 ± 8; with murine spleen cells (peptide 0.1 μg/ml) it was 152 ± 7; with murine spleen cells (peptide 1.0 μg/ml), 165 ± 6; with murine spleen cells (peptide 10 μg/ml) it was 171 ± 6; in the series with murine spleen cells (peptide 100 μg/ml), 180 ± 11.
Consider `CC(=O)N[C@@H](CCC(=O)N[C@@H](Cc1c[nH]c2ccccc12)C(=O)O)C(=O)O` [C, N-acetyl-γ-L-glutamyl-L-tryptophan], for which the “immunostimulatory activity” value with murine bone marrow cells is listed as “active compounds were obtained”. Further, the “Percent” value in the series with murine bone marrow cells (peptide 0.0001 μg/ml) amounted to 19%; in the series on murine bone marrow cells (peptide 0.001 μg/ml), 28%; in the series on murine bone marrow cells (peptide 0.01 μg/ml), 35%; in the series on murine bone marrow cells (peptide 0.1 μg/ml) it was 40%; with murine bone marrow cells (peptide 1.0 μg/ml) it was 45%; in the series with murine bone marrow cells (peptide 10 μg/ml) it was 46%. The “Percent” value with murine bone marrow cells (peptide 100 μg/ml) is 50%. The “interleukin-2 production” value in the series with murine spleen cells (peptide 0.001 μg/ml) was 128 ± 7; with murine spleen cells (peptide 0.01 μg/ml), 136 ± 7; with murine spleen cells (peptide 0.1 μg/ml), 149 ± 5; in the series on murine spleen cells (peptide 1.0 μg/ml) it was 157 ± 9; with murine spleen cells (peptide 10 μg/ml), 170 ± 4; with murine spleen cells (peptide 100 μg/ml), 174 ± 8.
As to `N[C@@H](CCC(=O)N[C@@H](Cc1cn(C=O)c2ccccc12)C(=O)O)C(=O)O` [D, γ-L-glutamyl-Nin -formyl-L-tryptophan], the “immunostimulatory activity” value in the series on murine bone marrow cells is “active compounds were obtained”. Besides, the “Percent” value in the series on murine bone marrow cells (peptide 0.0001 μg/ml) worked out at 24%; with murine bone marrow cells (peptide 0.001 μg/ml) it was 25%; in the series with murine bone marrow cells (peptide 0.01 μg/ml) it was 30%; with murine bone marrow cells (peptide 0.1 μg/ml) it was 36%; in the series on murine bone marrow cells (peptide 1.0 μg/ml), 42%; with murine bone marrow cells (peptide 10 μg/ml), 48%. In addition, the “Percent” value in the series on murine bone marrow cells (peptide 100 μg/ml) came out at 53%. For the same compound, the “interleukin-2 production” value with murine spleen cells (peptide 0.001 μg/ml) was determined as 114 ± 16; in the series with murine spleen cells (peptide 0.01 μg/ml), 125 ± 3; in the series with murine spleen cells (peptide 0.1 μg/ml) it was 153 ± 20; with murine spleen cells (peptide 1.0 μg/ml), 132 ± 8; in the series with murine spleen cells (peptide 10 μg/ml) it was 144 ± 7; in the series on murine spleen cells (peptide 100 μg/ml), 154 ± 5.
For the compound `N[C@@H](CCC(=O)O)C(=O)N[C@@H](Cc1c[nH]c2ccccc12)C(=O)O` [Thymogen, L-glutamyl-L-tryptophan, reference compound] (H-Glu-Trp-OH), the “.THETA.-antigen expression on murine bone marrow cells” value in the series on murine bone marrow cells (peptide 0.0001 μg/ml, 1 hour 37° C.) stood at 10 ± 0.5; with murine bone marrow cells (peptide 0.001 μg/ml) it was 10 ± 1.2; in the series on murine bone marrow cells (peptide 0.01 μg/ml) it was 10 ± 0.5; with murine bone marrow cells (peptide 0.1 μg/ml) it was 9 ± 1.0; in the series with murine bone marrow cells (peptide 1.0 μg/ml), 21 ± 0.8; in the series on murine bone marrow cells (peptide 10 μg/ml) it was 36 ± 2.8. Besides, the “.THETA.-antigen expression on murine bone marrow cells” value with murine bone marrow cells (peptide 100 μg/ml) is recorded as 37 ± 2.2. Further, the “Percent” value in the series with murine bone marrow cells (peptide 0.01 μg/ml) was determined as 18%; in the series on murine bone marrow cells (peptide 0.1 μg/ml), 20%; in the series on murine bone marrow cells (peptide 1.0 μg/ml), 25%; with murine bone marrow cells (peptide 10 μg/ml), 29%; in the series with murine bone marrow cells (peptide 100 μg/ml), 32%. Also, the “IL-2 production by murine spleen cells” value in the series with murine spleen cells (peptide 0.001 μg/ml, 36 hours) is reported as 114 ± 12; with murine spleen cells (peptide 0.01 μg/ml), 106 ± 10; with murine spleen cells (peptide 0.1 μg/ml), 106 ± 5; with murine spleen cells (peptide 1.0 μg/ml), 189 ± 13; in the series with murine spleen cells (peptide 10 μg/ml), 80 ± 9; with murine spleen cells (peptide 100 μg/ml) it was 89 ± 3. For the same compound, the “interleukin-2 production” value in the series on murine spleen cells (peptide 0.001 μg/ml) is recorded as 115 ± 8; in the series with murine spleen cells (peptide 0.01 μg/ml) it was 132 ± 16; in the series on murine spleen cells (peptide 0.1 μg/ml) it was 118 ± 11; in the series on murine spleen cells (peptide 1.0 μg/ml), 128 ± 5; in the series with murine spleen cells (peptide 10 μg/ml) it was 129 ± 10; with murine spleen cells (peptide 100 μg/ml) it was 136 ± 4.
As to `N[C@@H](CCC(=O)N[C@@H](Cc1c[nH]cn1)C(=O)O)C(=O)O` [γ-L-glutamyl-L-histidine], the “immunostimulatory activity” value with murine bone marrow cells is “little, if any, of the activities of Bestim”.
As for `CC[C@H](C)[C@H](NC(=O)CC[C@H](N)C(=O)O)C(=O)O` [γ-L-glutamyl-L-isoleucine], the “immunostimulatory activity” value in the series with murine bone marrow cells was “little, if any, of the activities of Bestim”.
Still for that read-out and setting: the result for `CC(C)C[C@H](NC(=O)CC[C@H](N)C(=O)O)C(=O)O` [γ-L-glutamyl-L-leucine] reads “little, if any, of the activities of Bestim”; that for `N[C@@H](CCC(=O)N[C@@H](Cc1ccccc1)C(=O)O)C(=O)O` [γ-L-glutamyl-L-phenylalanine], “little, if any, of the activities of Bestim”.
Turning to `N[C@@H](CCC(=O)N1CCC[C@H]1C(=O)O)C(=O)O` [γ-L-glutamyl-L-proline], the “immunostimulatory activity” value in the series on murine bone marrow cells is reported as “little, if any, of the activities of Bestim”.
In the case of `N[C@@H](CCC(=O)N[C@@H](Cc1ccc(O)cc1)C(=O)O)C(=O)O` [γ-L-glutamyl-L-tyrosine], the “immunostimulatory activity” value in the series with murine bone marrow cells is “little, if any, of the activities of Bestim”.
As for “RKDVY [thymopentin, Arg-Lys-Asp-Val-Tyr]”, the “half-life of breakdown in plasma” value in series [1] is 30 s.
On to γ-L-glutamyl-β-thienyl-D-alanyl-amide, for which the “immunostimulatory activity” value with murine bone marrow cells was “active compounds were obtained”. Also, the “Percent” value is recorded as 20% with murine bone marrow cells (peptide 0.0001 μg/ml); 23% in the series on murine bone marrow cells (peptide 0.001 μg/ml); 20% with murine bone marrow cells (peptide 0.01 μg/ml); 27% in the series with murine bone marrow cells (peptide 0.1 μg/ml); 28% in the series with murine bone marrow cells (peptide 1.0 μg/ml); 36% with murine bone marrow cells (peptide 10 μg/ml). In addition, the “Percent” value in the series with murine bone marrow cells (peptide 100 μg/ml) is on record as 40%. Also, the “interleukin-2 production” value in the series with murine spleen cells (peptide 0.001 μg/ml) came out at 146 ± 28; in the series with murine spleen cells (peptide 0.01 μg/ml) it was 127 ± 26; with murine spleen cells (peptide 0.1 μg/ml), 128 ± 10; in the series with murine spleen cells (peptide 1.0 μg/ml), 156 ± 11; with murine spleen cells (peptide 10 μg/ml), 172 ± 12; in the series on murine spleen cells (peptide 100 μg/ml), 198 ± 7.
